Measured values published in patent publication US11173174B2, “DNMT inhibitor as solid tumor therapeutic drug” (OHARA PHARMACEUTICAL CO., LTD., priority 2017, dated 2021).

What was measured:
[1] = test system: DNA methyltransferase (DNMT); experiment: Screening system for DNMT inhibitory activity (secretory luciferase reporter in HML58-3 cells); type: cell-based; settings: 10 μM of sample, cultured for 4 days, cell supernatant on day 5, HML58-3 cells
Description: The screening system for assessment of DNMT inhibitory activity used for 5′-position dibenzyl monophosphate derivatives of 5-azacytidine and its 2′-deoxy form is the evaluation system which we have developed recently (Epigenetics, 2016, Dec 9:0: Establishment of a high-throughput detection system for DNA demethylating agents, E. Okochi-Takada, N. Hattori et al.). It is a simple screening system for assessment of DNMT inhibitory activity which uses genetically modified colorectal cancer cells, wherein […] luciferase can be expressed when 5-position methylation of cytosine ring in expressed gene promoter region is inhibited by inhibiting DNA methyltransferase (DNMT).
The screening system for assessment of DNMT inhibitory activity used for 5′-position dibenzyl monophosphate derivatives of 5-azacytidine and its 2′-deoxy form is the evaluation system which we have developed recently (Epigenetics, 2016, Dec 9:0: Establishment of a high-throughput detection system for DNA demethylating agents, E. Okochi-Takada, N.
(§1) Hattori et al.). In the evaluation system, a vector in which a secretory luciferase gene was ligated in the downstream of the endogenous promoter CpG island region was introduced into colon cancer cells. When inhibitions of DNA methyltransferase (DNMT) or other DNA methylation maintenance mechanism occur, C-methylation of the promoter CpG island decreases and secretory luciferase is expressed. Since the luciferase is secretory type, it is a screening system for DNMT inhibitory activity by which the assessment can be conducted easily by collecting cell supernatant and adding the substrate of luciferin. That is, on the day before the sample addition, colon cancer cells HML58-3 that had been genetically modified were seeded in a 96-well cell culture plate. 10 μM of each sample was added to each of them, and cultured for 4 days. On day 5, the cell supernatant was collected and luciferase activity was determined. In addition, cell account for each sample was determined according to WST-8 method.

[2] = Distribution coefficient log P (n-octanol/PBS); type: physicochemical
Description: The separation systems of silica gel column, separation yields, data obtained from instrumental analysis and distribution coefficients of the compounds (A) to (E) which are 5′-position dibenzyl monophosphates of 5-azacytidines synthesized according to the above synthetic methods A or B are shown as below.

[3] = test system: colon cancer cells HML58-3; experiment: Cell count by WST-8 method (cytotoxicity); type: cell-based; settings: 10 μM of sample, cultured for 4 days, HML58-3 cells
Description: as §1

[4] = test system: HCT116 cell (human colon cancer); experiment: Antitumor activity in HCT116 cell-transplanted mouse model; type: in vivo, nude mice; settings: intraperitoneal, twice a week, 6 times in total; 5.5, 11 and 22 mg/kg; observed until 28th day; vs vehicle (DMSO)
Method: (§2) In vivo assessment In order to investigate the antitumor activity of 5′-position dibenzyl monophosphate derivatives of 5-azacytidine and its 2′-deoxy form, a HCT116 cell-transplanted mouse model derived from human colon cancer was used. After nurturing nude mice (female, 5 weeks old), 5×10^6 cells were transplanted subcutaneously into right flank. From the grouping date, samples in various concentrations (DMSO solution) were administered intraperitoneally for 6 times in total, at a frequency of twice a week. The observation was performed until the 28th day after grouping, during which body weight and tumor diameter were measured at a frequency of once a week.

[5] = Body weight / safety in HCT116 cell-transplanted mouse model; type: in vivo, nude mice; settings: intraperitoneal, twice a week, 6 times in total; 5.5, 11 and 22 mg/kg; observed until 28th day
Method: as §2

Substance | Luciferase activity (DNMT inhibition) [1] | Distribution coefficient log P [2] | Cytotoxicity (cell count, WST-8 method) [3] | Antitumor activity (tumor volume) [4] | Safety / change in body weight [5]
O,O′-Di(4-chloro)benzyl 5-aza-2′-deoxycytidylate [Compound (E)] | very strong luciferase activity | 2.44 | low |  | 
O,O′-Di(4-fluoro)benzyl 5-aza-2′-deoxycytidylate [Compound (D)] | very strong luciferase activity | 1.40 | low | dose-dependent antitumor activity | highly safe
O,O′-Di(4-methyl)benzyl 5-aza-2′-deoxycytidylate [Compound (C)] | very strong luciferase activity |  | low |  | 
O,O′-Dibenzyl 5-aza-2′-deoxycytidylate [Compound (B)] | very strong luciferase activity | 1.15 | low |  | 
O,O′-Dibenzyl 5-azacytidylate [Compound (A)] |  | 0.83 |  |  | 
